# Tests used:
# Assay in all cases: relative viability (nuclei count vs DMSO), 5 days (fraction); higher = more cells survive
# A549 = system: A549
# Method in brief: (§1)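 Each reported value is a median over duplicate plates. It expresses relative viability: treated-well nuclei count divided by vehicle-well nuclei count. Lung cancer cell lines in 1536-well plates were dosed by pin tool a day after seeding, alone with one drug or with a fixed anchor-drug dose plus five library-drug doses (not always all listed) in √10 steps, and nuclei were counted after 5 days.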
# ABC-1 = system: ABC-1
# Method in brief: as §1
# Calu-6 = system: Calu-6
# Method in brief: as §1
# EBC-1 = system: EBC-1
# Method in brief: as §1
# EMC-BAC-2 = system: EMC-BAC-2
# Method in brief: as §1
# IA-LM = system: IA-LM
# Method in brief: as §1
# NCI-H1299 = system: NCI-H1299
# Method in brief: as §1
# NCI-H1703 = system: NCI-H1703
# Method in brief: as §1
# NCI-H2009 = system: NCI-H2009
# Method in brief: as §1
# NCI-H2228 = system: NCI-H2228
# Method in brief: as §1
smiles,measurement,setting,value
Nc1cccc2c1CN(C1CCC(=O)NC1=O)C2=O (centres undefined) [Lenalidomide] + CS(=O)(=O)CCNCc1ccc(-c2ccc3ncnc(Nc4ccc(OCc5cccc(F)c5)c(Cl)c4)c3c2)o1 [Lapatinib] (partner 2 µM),relative viability,A549; first compound 0.253 µM,1.06
same,relative viability,A549; first compound 0.8 µM,1.09
same,relative viability,A549; first compound 2.53 µM,0.972
same,relative viability,A549; first compound 8 µM,1.02
same,relative viability,ABC-1; first compound 0.253 µM,1.13
same,relative viability,ABC-1; first compound 2.53 µM,1.11
same,relative viability,ABC-1; first compound 8 µM,1.34
same,relative viability,Calu-6; first compound 0.253 µM,0.971
same,relative viability,Calu-6; first compound 0.8 µM,1.09
same,relative viability,Calu-6; first compound 2.53 µM,1.17
same,relative viability,Calu-6; first compound 8 µM,1.13
same,relative viability,EBC-1; first compound 0.253 µM,0.211
same,relative viability,EBC-1; first compound 0.8 µM,0.205
same,relative viability,EBC-1; first compound 2.53 µM,0.217
same,relative viability,EBC-1; first compound 8 µM,0.235
same,relative viability,EMC-BAC-2; first compound 0.253 µM,0.921
same,relative viability,EMC-BAC-2; first compound 0.8 µM,0.825
same,relative viability,EMC-BAC-2; first compound 2.53 µM,0.905
same,relative viability,EMC-BAC-2; first compound 8 µM,0.754
same,relative viability,IA-LM; first compound 0.253 µM,0.647
same,relative viability,IA-LM; first compound 0.8 µM,0.557
same,relative viability,IA-LM; first compound 2.53 µM,0.613
same,relative viability,IA-LM; first compound 8 µM,0.532
same,relative viability,NCI-H1299; first compound 0.253 µM,0.961
same,relative viability,NCI-H1299; first compound 0.8 µM,0.873
same,relative viability,NCI-H1299; first compound 2.53 µM,0.948
same,relative viability,NCI-H1299; first compound 8 µM,1.01
same,relative viability,NCI-H1703; first compound 0.253 µM,1.06
same,relative viability,NCI-H1703; first compound 0.8 µM,1.78
same,relative viability,NCI-H1703; first compound 2.53 µM,1.42
same,relative viability,NCI-H1703; first compound 8 µM,1.24
same,relative viability,NCI-H2009; first compound 0.253 µM,0.919
same,relative viability,NCI-H2009; first compound 0.8 µM,0.947
same,relative viability,NCI-H2009; first compound 2.53 µM,1.25
same,relative viability,NCI-H2009; first compound 8 µM,1.25
same,relative viability,NCI-H2228; first compound 0.253 µM,0.997
same,relative viability,NCI-H2228; first compound 0.8 µM,0.864
same,relative viability,NCI-H2228; first compound 2.53 µM,1.59
same,relative viability,NCI-H2228; first compound 8 µM,0.958
Nc1cccc2c1CN(C1CCC(=O)NC1=O)C2=O (centres undefined) [Lenalidomide] + Cc1nc(NC(=O)N2CCC[C@H]2C(N)=O)sc1-c1ccnc(C(C)(C)C(F)(F)F)c1 [Alpelisib] (partner 2 µM),relative viability,A549; first compound 0.253 µM,0.789
same,relative viability,A549; first compound 0.8 µM,0.765
same,relative viability,A549; first compound 2.53 µM,0.813
same,relative viability,A549; first compound 8 µM,0.702
same,relative viability,ABC-1; first compound 0.253 µM,0.948
same,relative viability,ABC-1; first compound 0.8 µM,0.996
same,relative viability,ABC-1; first compound 2.53 µM,1.02
same,relative viability,ABC-1; first compound 8 µM,1.01
same,relative viability,Calu-6; first compound 0.253 µM,0.945
same,relative viability,Calu-6; first compound 0.8 µM,0.946
same,relative viability,Calu-6; first compound 2.53 µM,1.08
same,relative viability,Calu-6; first compound 8 µM,1.02
same,relative viability,EBC-1; first compound 0.253 µM,0.787
same,relative viability,EBC-1; first compound 0.8 µM,0.798
same,relative viability,EBC-1; first compound 2.53 µM,0.907
same,relative viability,EBC-1; first compound 8 µM,1.01
same,relative viability,EMC-BAC-2; first compound 0.253 µM,0.691
same,relative viability,EMC-BAC-2; first compound 0.8 µM,0.706
same,relative viability,EMC-BAC-2; first compound 2.53 µM,0.762
same,relative viability,EMC-BAC-2; first compound 8 µM,0.625
same,relative viability,IA-LM; first compound 0.253 µM,0.716
same,relative viability,IA-LM; first compound 0.8 µM,0.735
same,relative viability,IA-LM; first compound 2.53 µM,0.797
same,relative viability,IA-LM; first compound 8 µM,0.75
same,relative viability,NCI-H1299; first compound 0.253 µM,1.03
same,relative viability,NCI-H1299; first compound 0.8 µM,1.1
same,relative viability,NCI-H1299; first compound 2.53 µM,1.06
same,relative viability,NCI-H1299; first compound 8 µM,1.09
same,relative viability,NCI-H1703; first compound 0.253 µM,0.253
same,relative viability,NCI-H1703; first compound 0.8 µM,0.276
same,relative viability,NCI-H1703; first compound 2.53 µM,0.366
same,relative viability,NCI-H1703; first compound 8 µM,0.354
same,relative viability,NCI-H2009; first compound 0.253 µM,1.1
same,relative viability,NCI-H2009; first compound 0.8 µM,1.12
same,relative viability,NCI-H2009; first compound 2.53 µM,1.19
same,relative viability,NCI-H2009; first compound 8 µM,1.21
same,relative viability,NCI-H2228; first compound 0.253 µM,0.851
same,relative viability,NCI-H2228; first compound 0.8 µM,0.736
same,relative viability,NCI-H2228; first compound 2.53 µM,0.785
same,relative viability,NCI-H2228; first compound 8 µM,0.817

# Reference: the supplement of paper PMC10307832
